{"source": "paper PMC6234229", "about": "“The role of loops B and C in determining the potentiation of GABAA receptors by midazolam” (Pharmacology Research & Perspectives, 2018)", "key": {"[1]": {"target": "T1, α6(N204I)β2γ2 GABAA receptor (Homo sapiens, UniProt P18507+P47870+Q16445, N223I)", "T1 construct": "expressed in transfected cells; host or cells: HEK293T", "experiment": "GABA concentration-response assay, whole-cell patch clamp, HEK293T", "type": "cell-based", "details": "GABA Hill fit", "text": "(§1) Human (Homo sapiens) GABAA subunits (α1‐6, β2, γ2s) were subcloned into pcDNA3.1+ vectors with a cytomegalovirus (CMV) promoter. The hβ2 and hα3 sequences were humanized rat (Rattus norvegicus) cDNA with amino acid substitutions made to match the human protein sequence. The α1‐3, α5, β2, and γ2s subunits were a generous gift from Neil L. Harrison (Columbia University Medical Center, NY). The α4 subunit was obtained from GenScript (Piscataway, NJ), and the α6 subunit was a generous gift from Robert L. McDonald (Vanderbilt University, TN). All point mutations (listed in Figure 1C) were introduced using the QuikChange Lightening site‐directed mutagenesis kit (Agilent Technologies, Santa Clara, CA) according to the manufacturer's instructions and were confirmed by sequencing (Eurofins MWG Operon, Louisville, KY).\n(§2) Human embryonic kidney cells containing the SV40 T‐antigen (HEK293T) were acquired from American Type Culture Collection (ATCC®, Manassas, VA), catalogue number, CRL3216. HEK293T cells were maintained at 37°C and 5% CO2 in Eagle Minimum Essential Medium (MEM) supplemented with 5% fetal bovine serum (Atlanta Biologicals Inc., Flowery Branch, GA), 40 μM L‐glutamine, 100 U/mL penicillin and 0.1 mM streptomycin. Cells were passaged regularly when they reached 70% confluency using trypsin. Cells were not passaged more than 22 times. New cells were revived from frozen stocks at passage 2‐4. Cells used for in vitro electrophysiology experiments were grown on poly‐D‐lysine‐coated glass coverslips (No.2, VWR, Radnor, PA) and transfected with X‐tremeGENE (Roche Diagnostics, Indianapolis, IN) with the desired receptor subunit cDNAs at a 1:1:1 ratio to express αxβ2γ2s receptors (2 μg total cDNA) and with 0.5 μg green fluorescent protein (GFP) as an expression marker. The γ2s incorporation into receptors was tested with zinc inhibition assays regularly.24 Patch clamp experiments were performed on cells at 24‐72 hours post‐transfection. All experiments were performed at 22°C. Experiments consisted of at least five cells recorded per day from at least two transfections across 3‐4 days to control for cell health and transfection efficiency. At least three cells expressing wild‐type receptors were recorded on days that mutant receptors were tested to provide a time‐matched expression control. All reagents were purchased from Sigma‐Aldrich (St. Louis, MO) unless otherwise stated.\n(§3) Extracellular solution contained 161 mM NaCl, 3 mM KCl, 1 mM MgCl2, 1.5 mM CaCl2, 10 mM HEPES, and 6 mM D‐glucose, adjusted to pH 7.4 with NaOH (320‐330 mOsm). […] The perfusion system was controlled by protocols written in pClamp 9 (Molecular Devices, LLC., Sunnyvale, CA). Whole‐cell currents were recorded at ‐60 mV, filtered at 100 Hz and sampled at 200 Hz with a MultiClamp 700B amplifier (Molecular Devices, LLC) and DigiData 1322A (Molecular Devices, LLC) digitizer. […] Cells were recorded with the midazolam protocol no more than two times to avoid desensitization and incomplete washout or irreversible modulation.\n(§4) Recordings were analyzed using MATLAB (Math Works, Inc., Natick, MA). […] The maximum peak current, EC50 and Hill coefficient were estimated for assays from each cell. When Hill parameters are estimated from whole‐cell recordings, the changes in the parameters across receptor conditions can be ascribed to the following changes in receptor physiology. Changes in maximum current can be due to changes in the single‐channel conductance or the rate of desensitization. Changes in cell surface receptor expression can cause minor changes in maximum current, but are unlikely to occur in the time course of our experimental protocol. […] More often minor changes in the Hill coefficient are attributed to the altered homogeneity in the receptor population expressed by the HEK293T cell. For example, a shallower Hill coefficient could be caused by a shift in the population of receptors from mostly αβγ receptors to a combination of both αβ and αβγ receptors."}, "[2]": {"target": "T2, α2(S205I)β2γ2 GABAA receptor (Homo sapiens, UniProt P18507+P47869+P47870, S233I)", "T2 construct": "expressed in transfected cells; host or cells: HEK293T", "experiment": "GABA concentration-response assay, whole-cell patch clamp, HEK293T", "type": "cell-based", "details": "GABA Hill fit", "text": "as §1, §2, §3, §4"}, "[3]": {"target": "T3, α5(H105R)β2γ2 GABAA receptor (Homo sapiens, UniProt P18507+P31644+P47870, H136R)", "T3 construct": "expressed in transfected cells; host or cells: HEK293T", "T3 sequence (P31644 32-462 H136R)": "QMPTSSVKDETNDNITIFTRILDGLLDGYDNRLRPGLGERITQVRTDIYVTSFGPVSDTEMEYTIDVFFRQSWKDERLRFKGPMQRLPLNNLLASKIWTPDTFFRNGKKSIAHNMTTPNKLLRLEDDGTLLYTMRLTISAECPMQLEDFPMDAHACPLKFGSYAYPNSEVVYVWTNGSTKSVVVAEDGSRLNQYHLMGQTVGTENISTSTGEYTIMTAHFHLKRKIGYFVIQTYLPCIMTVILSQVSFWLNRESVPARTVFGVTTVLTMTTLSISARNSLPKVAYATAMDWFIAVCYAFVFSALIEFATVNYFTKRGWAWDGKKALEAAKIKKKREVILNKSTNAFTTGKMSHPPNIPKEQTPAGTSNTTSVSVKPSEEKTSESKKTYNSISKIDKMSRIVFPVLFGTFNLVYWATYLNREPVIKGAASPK", "T3 sequence (P47870 26-474 isoform P47870-1 limits assumed, stated change not applied)": "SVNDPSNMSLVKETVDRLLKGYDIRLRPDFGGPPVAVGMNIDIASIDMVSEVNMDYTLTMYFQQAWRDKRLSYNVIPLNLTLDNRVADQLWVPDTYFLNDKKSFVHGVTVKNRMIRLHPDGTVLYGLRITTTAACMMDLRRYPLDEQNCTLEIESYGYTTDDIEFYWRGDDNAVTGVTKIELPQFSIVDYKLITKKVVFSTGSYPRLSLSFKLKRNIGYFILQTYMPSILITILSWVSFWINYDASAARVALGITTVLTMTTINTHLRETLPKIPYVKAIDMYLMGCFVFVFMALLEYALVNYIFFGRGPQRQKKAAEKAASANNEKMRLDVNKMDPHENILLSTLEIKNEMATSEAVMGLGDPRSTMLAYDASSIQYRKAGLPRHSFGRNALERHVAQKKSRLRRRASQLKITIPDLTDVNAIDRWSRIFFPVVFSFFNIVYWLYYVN", "T3 sequence (P18507 40-467 isoform P18507-1 limits assumed, stated change not applied)": "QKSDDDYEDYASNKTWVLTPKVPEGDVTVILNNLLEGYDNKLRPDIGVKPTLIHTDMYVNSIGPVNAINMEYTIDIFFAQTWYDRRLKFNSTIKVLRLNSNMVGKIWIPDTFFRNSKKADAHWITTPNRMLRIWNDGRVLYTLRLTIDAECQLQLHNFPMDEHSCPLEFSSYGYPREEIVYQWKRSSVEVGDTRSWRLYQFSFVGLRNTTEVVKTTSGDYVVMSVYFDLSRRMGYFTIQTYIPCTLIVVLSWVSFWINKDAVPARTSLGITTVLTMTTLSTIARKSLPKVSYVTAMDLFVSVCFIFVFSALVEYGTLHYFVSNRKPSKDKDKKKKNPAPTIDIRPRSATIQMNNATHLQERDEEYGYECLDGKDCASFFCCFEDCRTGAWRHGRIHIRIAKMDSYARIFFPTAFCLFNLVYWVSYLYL", "experiment": "GABA concentration-response assay, whole-cell patch clamp, HEK293T", "type": "cell-based", "details": "GABA Hill fit", "text": "as §1, §2, §3, §4"}, "[4]": {"target": "T4, α4(P161T)β2γ2 GABAA receptor (Homo sapiens, UniProt P18507+P47870+P48169, P196T)", "T4 construct": "expressed in transfected cells; host or cells: HEK293T", "experiment": "GABA concentration-response assay, whole-cell patch clamp, HEK293T", "type": "cell-based", "details": "GABA Hill fit", "text": "as §1, §2, §3, §4"}, "[5]": {"target": "T5, α1(T163P)β2γ2 GABAA receptor (Homo sapiens, UniProt P14867+P18507+P47870, T190P)", "T5 construct": "expressed in transfected cells; host or cells: HEK293T", "T5 sequence (P14867 28-456 T190P)": "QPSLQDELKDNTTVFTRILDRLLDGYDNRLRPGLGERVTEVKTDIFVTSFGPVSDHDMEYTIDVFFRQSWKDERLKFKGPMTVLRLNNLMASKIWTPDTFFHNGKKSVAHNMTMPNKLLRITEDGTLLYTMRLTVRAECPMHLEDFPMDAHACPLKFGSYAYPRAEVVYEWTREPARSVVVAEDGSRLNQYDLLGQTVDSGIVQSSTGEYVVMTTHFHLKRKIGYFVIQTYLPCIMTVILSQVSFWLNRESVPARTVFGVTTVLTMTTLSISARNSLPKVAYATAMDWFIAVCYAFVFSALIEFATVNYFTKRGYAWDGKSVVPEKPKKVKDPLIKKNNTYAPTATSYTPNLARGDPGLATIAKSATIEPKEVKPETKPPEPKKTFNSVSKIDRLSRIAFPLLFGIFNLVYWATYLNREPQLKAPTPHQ", "T5 sequence (P47870 25-512 limits assumed)": "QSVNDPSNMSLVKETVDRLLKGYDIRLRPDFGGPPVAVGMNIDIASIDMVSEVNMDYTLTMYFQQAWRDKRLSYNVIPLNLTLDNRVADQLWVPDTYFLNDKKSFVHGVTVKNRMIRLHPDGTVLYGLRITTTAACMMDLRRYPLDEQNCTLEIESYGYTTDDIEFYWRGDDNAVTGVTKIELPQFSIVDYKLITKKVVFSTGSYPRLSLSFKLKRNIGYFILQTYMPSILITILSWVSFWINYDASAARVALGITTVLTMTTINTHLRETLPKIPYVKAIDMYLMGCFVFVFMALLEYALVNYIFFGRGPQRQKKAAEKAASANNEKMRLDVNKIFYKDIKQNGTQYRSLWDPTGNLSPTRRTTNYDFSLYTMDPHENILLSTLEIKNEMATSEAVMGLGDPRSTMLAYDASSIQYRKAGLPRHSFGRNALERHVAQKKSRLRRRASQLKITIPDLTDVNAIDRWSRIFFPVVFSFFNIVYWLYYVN", "T5 sequence (P18507 40-467 isoform P18507-1 limits assumed, stated change not applied)": "as the sequence (P18507 40-467 isoform P18507-1 limits assumed, stated change not applied) above", "experiment": "GABA concentration-response assay, whole-cell patch clamp, HEK293T", "type": "cell-based", "details": "GABA Hill fit", "text": "as §1, §2, §3, §4"}, "[6]": {"target": "T6, α2(T162P)β2γ2 GABAA receptor (Homo sapiens, UniProt P18507+P47869+P47870, T190P)", "T6 construct": "expressed in transfected cells; host or cells: HEK293T", "experiment": "GABA concentration-response assay, whole-cell patch clamp, HEK293T", "type": "cell-based", "details": "GABA Hill fit", "text": "as §1, §2, §3, §4"}, "α4β2γ2 GABAA receptor": {"target": "T7, α4β2γ2 GABAA receptor (Homo sapiens, UniProt P18507+P47870+P48169)", "T7 construct": "expressed in transfected cells; host or cells: HEK293T", "T7 sequence (P48169 36-554)": "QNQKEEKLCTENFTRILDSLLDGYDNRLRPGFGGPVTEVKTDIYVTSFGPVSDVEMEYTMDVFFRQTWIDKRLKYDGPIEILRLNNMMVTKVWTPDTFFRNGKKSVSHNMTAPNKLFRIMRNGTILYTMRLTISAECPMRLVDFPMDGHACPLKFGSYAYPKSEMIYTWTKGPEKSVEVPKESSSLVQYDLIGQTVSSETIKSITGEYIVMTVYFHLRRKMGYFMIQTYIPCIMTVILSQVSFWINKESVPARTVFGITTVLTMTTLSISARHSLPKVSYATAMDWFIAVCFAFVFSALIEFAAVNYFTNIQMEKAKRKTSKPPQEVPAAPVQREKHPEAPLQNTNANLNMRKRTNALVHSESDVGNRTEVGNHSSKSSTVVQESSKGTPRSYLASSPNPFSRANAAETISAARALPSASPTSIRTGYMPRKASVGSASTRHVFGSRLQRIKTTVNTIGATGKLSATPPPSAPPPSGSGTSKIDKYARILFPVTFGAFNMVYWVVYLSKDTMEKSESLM", "T7 sequence (P47870 26-474 isoform P47870-1 limits assumed)": "as the sequence (P47870 26-474 isoform P47870-1 limits assumed, stated change not applied) above", "T7 sequence (P18507 40-467 isoform P18507-1 limits assumed)": "as the sequence (P18507 40-467 isoform P18507-1 limits assumed, stated change not applied) above", "experiment": "GABA concentration-response assay, whole-cell patch clamp, HEK293T", "type": "cell-based", "details": "GABA Hill fit", "text": "as §1, §2, §3, §4"}, "[7]": {"target": "T8, α3(T187P)β2γ2 GABAA receptor (Homo sapiens, UniProt P18507+P34903+P47870, T215P)", "T8 construct": "expressed in transfected cells; host or cells: HEK293T", "experiment": "GABA concentration-response assay, whole-cell patch clamp, HEK293T", "type": "cell-based", "details": "GABA Hill fit", "text": "as §1, §2, §3, §4"}, "α6β2γ2 GABAA receptor": {"target": "T9, α6β2γ2 GABAA receptor (Homo sapiens, UniProt P18507+P47870+Q16445)", "T9 construct": "expressed in transfected cells; host or cells: HEK293T", "experiment": "GABA concentration-response assay, whole-cell patch clamp, HEK293T", "type": "cell-based", "details": "GABA Hill fit", "text": "as §1, §2, §3, §4"}, "[8]": {"target": "T10, α3(H126R)β2γ2 GABAA receptor (Homo sapiens, UniProt P18507+P34903+P47870, H154R)", "T10 construct": "expressed in transfected cells; host or cells: HEK293T", "experiment": "GABA concentration-response assay, whole-cell patch clamp, HEK293T", "type": "cell-based", "details": "GABA Hill fit", "text": "as §1, §2, §3, §4"}, "[9]": {"target": "T11, α5(P166T)β2γ2 GABAA receptor (Homo sapiens, UniProt P18507+P31644+P47870, P197T)", "T11 construct": "expressed in transfected cells; host or cells: HEK293T", "experiment": "GABA concentration-response assay, whole-cell patch clamp, HEK293T", "type": "cell-based", "details": "GABA Hill fit", "text": "as §1, §2, §3, §4"}, "[10]": {"target": "T12, α5(S209I)β2γ2 GABAA receptor (Homo sapiens, UniProt P18507+P31644+P47870, S240I)", "T12 construct": "expressed in transfected cells; host or cells: HEK293T", "experiment": "GABA concentration-response assay, whole-cell patch clamp, HEK293T", "type": "cell-based", "details": "GABA Hill fit", "text": "as §1, §2, §3, §4"}, "[11]": {"details": "cited from earlier work"}}, "note": "Values joined by “and” are separate entries in the source; they are usually repeats but may differ in a detail not shown here. Equal entries are not always repeated. Where two headings read alike, the source gives them in different places.", "data": [{"molecule": "NCCCC(=O)O", "note": "[GABA, γ‐aminobutyric acid]", "values": [{"measurement": "Max Current (pA)", "setting": "[1]", "result": "-3549 ± 408.6", "unit": "pA"}, {"measurement": "Hill coefficient", "setting": "[2]", "result": "1.452 ± 0.151"}, {"measurement": "Max Current (pA)", "setting": "[2]", "result": -7835, "unit": "pA"}, {"measurement": "Hill coefficient", "setting": "[3]", "result": "1.269 ± 0.084"}, {"measurement": "Max Current (pA)", "setting": "[3]", "result": "-6799 ± 919.2", "unit": "pA"}, {"measurement": "Max Current (pA)", "setting": "[4]", "result": "-4487 ± 397.2", "unit": "pA"}, {"measurement": "Hill coefficient", "setting": "[5]", "result": "1.230 ± 0.049"}, {"measurement": "Max Current (pA)", "setting": "[5]", "result": "-2449 ± 376.1", "unit": "pA"}, {"measurement": "Hill coefficient", "setting": "[6]", "result": "1.494 ± 0.101"}, {"measurement": "Max Current (pA)", "setting": "[6]", "result": "-1765 ± 246.0", "unit": "pA"}, {"measurement": "Hill coefficient", "setting": "α4β2γ2 GABAA receptor", "result": "1.113 ± 0.063"}, {"measurement": "Max Current (pA)", "setting": "α4β2γ2 GABAA receptor", "result": "-3039 ± 347.3", "unit": "pA"}, {"measurement": "Max Current (pA)", "setting": "[7]", "result": "-1993 ± 189.7", "unit": "pA"}, {"measurement": "Hill coefficient", "setting": "α6β2γ2 GABAA receptor", "result": "1.405 ± 0.074"}, {"measurement": "Max Current (pA)", "setting": "α6β2γ2 GABAA receptor", "result": "-3276 ± 578.1", "unit": "pA"}, {"measurement": "Hill coefficient", "setting": "[8]", "result": "1.519 ± 0.88"}, {"measurement": "Max Current (pA)", "setting": "[8]", "result": "-3597 ± 343.6", "unit": "pA"}, {"measurement": "Hill coefficient", "setting": "[9]", "result": "1.420 ± 0.064"}, {"measurement": "Max Current (pA)", "setting": "[9]", "result": "-4543 ± 553.0", "unit": "pA"}, {"measurement": "Hill coefficient", "setting": "[10]", "result": "1.434 ± 0.059"}, {"measurement": "Max Current (pA)", "setting": "[10]", "result": "-6073 ± 742.0", "unit": "pA"}]}, {"molecule": "Cc1ncc2n1-c1ccc(Cl)cc1C(c1ccccc1F)=NC2", "note": "[midazolam]", "values": [{"measurement": "therapeutically relevant range of midazolam measured from plasma", "setting": "[11]; anesthetized state", "result": "350 ng/mL and 966 nM"}, {"measurement": "therapeutically relevant range of midazolam measured from plasma", "setting": "[11]; postoperative drowsiness", "result": "75 ng/mL and 207 nM"}]}]}
